Results: article PMC4102551, “Screening and Characterisation of Antimicrobial Properties of Semisynthetic Betulin Derivatives” (PLoS ONE, 2014)
Converted amounts (≈) assume the structure as drawn. “And” between values parts separate entries of the source, which are not always exact repeats. Identical values can stand only once.

What was measured:
C. albicans ATCC 90028 = experiment: Broth microdilution assay, C. albicans; assay type: cell-based, Candida albicans; conditions: for Inhibitory effect (%) C. albicans ATCC 90028: 50 µM, 48 h at 35°C, inhibition of growth, mean ± SD
Method: (§1) Clinically used antimicrobial agents were selected based on international guidelines for antimicrobial testing and were utilised as reference compounds in the antimicrobial assays. The compounds were purchased from Sigma, Fluka and ICN Biomedicals. Stock solutions of the reference compounds were prepared either in double distilled sterile MilliQ water or in DMSO. Water solutions were sterilised through a 0.22 µm filter (VWR International). […] During the primary screening, these reference compounds were used as positive controls at the determined MIC on every plate.
(§2) Gram-negative strains Escherichia coli (ATCC 25922), Enterobacter aerogenes (ATCC 13048) and Pseudomonas aeruginosa (ATCC 27853), Gram-positive strains Staphylococcus aureus (ATCC 25923) and Enterococcus faecalis (ATCC 29212), and fungal strain Candida albicans (ATCC 90028) were obtained from Microbiologics Inc., and used for the antimicrobial screening. Strains were selected according to the guidelines set for clinical laboratories by Clinical and Laboratory Standards Institute [CLSI, formerly National Committee on Clinical Laboratory Standards [22]] and the European Committee on Antimicrobial Susceptibility Testing (EUCAST). Bacterial strains were grown on Mueller Hinton II Agar (MHA) (BBL, BD) and Mueller Hinton II broth (MHB) (BBL, BD), whereas Candida was initiated on Sabouraud Dextrose Agar (SDA) (Difco, BD) plates. Media were prepared into MilliQ water according to manufacturer’s instruction and autoclaved at 121°C for 15 min. Bacteria were plated on MHA plates and incubated at 37°C for 16–18 h. Bacterial suspension for the assays was prepared by subculturing the bacteria into MHB and by incubating at 37°C for 16–20 h at 110 rpm prior to the assay. Candida strain was grown on SDA plates at 27°C for 16–18 h and suspended into sterile 0.9% saline for the assay.
(§3) Antimicrobial screening assays were performed by broth microdilution method following the guidelines of CLSI and EUCAST. Bacterial suspensions were prepared as mentioned earlier and diluted with MHB to obtain a final inoculum of 5×10^5 colony-forming units (cfu)/mL in the assay for all the bacteria (based on OD620 values previously calibrated against plate counts). Candida suspension was prepared into sterile 0.9% saline solution as stated earlier. […] Assays were carried out in clear 96-well microtitre plates and initiated by dispensing an equal volume of microbial suspension and sample solution diluted into the assay medium into the wells. The plates were incubated for 24 h at 37°C (for Candida the incubation was at 35°C for 48 h) with agitation. Absorbance was measured at 620 nm with Victor plate reader (Wallac 1420, Perkin Elmer) at 0, 4 and 24 h with the bacteria, and at 0, 24 and 48 h with Candida. The antimicrobial activity of the samples was calculated from the absorbance values by comparing to the controls, and expressed as a percentage inhibition of growth. All the betulin derivatives were first assayed at the single concentration of 50 µM (two separate experiments, each with three replicates). […] The MIC90 value was expressed as the lowest concentration of compound that inhibited the microbial growth by >90%. The MIC90 results are means of three replicates from two separate experiments.

E. faecalis ATCC 29212 = experiment: Broth microdilution assay, E. faecalis; assay type: cell-based, Enterococcus faecalis; conditions: 50 µM, 24 h, inhibition of growth, mean ± SD
Method: as §1, §2, §3

Huh-7 cells = experiment: in vitro; assay type: cell-based, human; conditions: 24 h exposure; for Cytotoxicity (%) Huh-7 cells: 50 µM, ATP content, 5% FBS
Method: Huh-7 cells (derived from human hepatocellular carcinoma) were obtained as a gift from Prof. Ralf Bartenschlager (University of Heidelberg, Germany) and used for assessing the cytotoxicity against mammalian cells. HL cells (a heteroploid cell line used for propagating respiratory viruses) were used as a host cell line in the host-pathogen co-culture assay. […] Both cell lines were cultured at 37°C, 5% CO2 and 95% humidity.
The effect of the betulin derivatives on metabolic activity of Huh-7 cells was evaluated by measuring the intracellular ATP content of the cells after 24 h exposure to the compounds. In brief, cells were seeded at 20000 cells/well on white-walled microplates (PerkinElmer) and incubated at 37°C, 5% CO2 and 95% humidity. After culturing the cells overnight, the medium was replaced with the assay media (5% FBS) containing the sample and the cells were incubated for 24 h. Polymyxin B sulphate (15000 IU/mL) was used as a positive control. Following the incubation period, Promega’s CellTiter-Glo Cell Viability Assay was used to determine the intracellular ATP levels according to the manufacturer’s instructions. Cells were washed with 100 µL 6.7 mM PBS, pH 7.4 and 50 µL of fresh assay media and 50 µL of the CellTiter-Glo reagent were added into the wells. After 2 min shaking, followed by 10 min incubation at RT, luminometric signal was measured using Varioskan Flash plate reader (Thermo Fisher Scientific).

E. coli ATCC 25922 = experiment: Broth microdilution assay, E. coli; assay type: cell-based, Escherichia coli; conditions: for Inhibitory effect (%) E. coli ATCC 25922: 50 µM, 24 h, inhibition of growth, mean ± SD
Method: as §1, §2, §3

E. aerogenes ATCC 13048 = experiment: Broth microdilution assay, E. aerogenes; assay type: cell-based, Enterobacter aerogenes; conditions: for Inhibitory effect (%) E. aerogenes ATCC 13048: 50 µM, 24 h, inhibition of growth, mean ± SD
Method: as §1, §2, §3

P. aeruginosa ATCC 27853 = experiment: Broth microdilution assay, P. aeruginosa; assay type: cell-based, Pseudomonas aeruginosa; conditions: for Inhibitory effect (%) P. aeruginosa ATCC 27853: 50 µM, 24 h, inhibition of growth, mean ± SD
Method: as §1, §2, §3

S. aureus ATCC 25923 = experiment: Broth microdilution assay, S. aureus; assay type: cell-based, Staphylococcus aureus; conditions: 50 µM, 24 h, inhibition of growth, mean ± SD
Method: as §1, §2, §3

[1] = lowest concentration inhibiting growth by >90%

Row | Compound | MIC90 (C. albicans ATCC 90028; Candida albicans, ATCC90028, lowest concentration inhibiting growth by >90%, read-out: MIC90 of positive control, C. albicans) [µg/mL] | Inhibitory effect (%) E. faecalis ATCC 29212 (E. faecalis ATCC 29212) | Inhibitory effect (%) C. albicans ATCC 90028 (C. albicans ATCC 90028) [%] | Cytotoxicity (%) Huh-7 cells (Huh-7 cells) [%] | Inhibitory effect (%) E. coli ATCC 25922 (E. coli ATCC 25922) [%] | Inhibitory effect (%) E. aerogenes ATCC 13048 (E. aerogenes ATCC 13048) | Inhibitory effect (%) P. aeruginosa ATCC 27853 (P. aeruginosa ATCC 27853) [%] | Inhibitory effect (%) S. aureus ATCC 25923 (S. aureus ATCC 25923) [%] | MIC90 of positive control, E. coli (E. coli ATCC 25922; [1]) | MIC90 of positive control, E. aerogenes (E. aerogenes ATCC 13048; [1]) | MIC90 of positive control, P. aeruginosa (P. aeruginosa ATCC 27853; [1]) | IC50 cytotoxicity Huh-7 cells (positive control) (Huh-7 cells; ATP assay) [IU/mL]
1 | C[C@@H]1[C@H](O)[C@@H](C)/C=C/C=C/C=C/C=C/C=C/C=C/C=C/[C@H](O[C@@H]2O[C@H](C)[C@@H](O)[C@H](N)[C@@H]2O)C[C@@H]2O[C@](O)(C[C@@H](O)C[C@@H](O)[C@H](O)CC[C@@H](O)C[C@@H](O)CC(=O)O[C@H]1C)C[C@H](O)[C@H]2C(=O)O [Amphotericin B, reference compound] | 2 (≈ 2.16 µM) |  |  |  |  |  |  |  |  |  |  | 
2 | C=C(C)[C@@H]1CC[C@]2(COC(=O)C3C(C=C(C)C)C3(C)C)CC[C@]3(C)[C@H](CC[C@@H]4[C@@]5(C)CC[C@H](O)C(C)(C)[C@@H]5CC[C@]43C)[C@@H]12 (stereo partly drawn) [Compound 3, 28-O-chrysanthemoylbetulin] |  | 46.9±6.0% | 35.4±3.8 | -5.8±2.5 | 0.3±1.7 | 10.6±0.5% | 4.4±1.4 | -23.2±11 |  |  |  | 
3 | C=C(C)[C@@H]1CC[C@]2(COC(=O)c3cccnc3)CC[C@]3(C)[C@H](CC[C@@H]4[C@@]5(C)CC[C@H](O)C(C)(C)[C@@H]5CC[C@]43C)[C@@H]12 [Compound 6, 28-O-nicotinoylbetulin] |  | 60.1±4.0% | 36.7±7.6 | -0.4±3.4 | -0.6±6.8 | 7.5±1.3% | 2.2±2.2 | -17.7±2.0 |  |  |  | 
4 | C=C(C)[C@@H]1CC[C@]2(COC(C)=O)CC[C@]3(C)[C@H](CC[C@@H]4[C@@]5(C)CC[C@H](O)C(C)(C)[C@@H]5CC[C@]43C)[C@@H]12 [Compound 9] |  | 50.9±2.1% | 3.0±10.1 | 5.1±1.0 | -0.2±7.1 | 9.1±2.1% | -0.6±3.3 | 5.1±6.9 |  |  |  | 
5 | C=C(C)C1CCC2(CO)CCC3(C)C(CCC4C5(C)CCC(OC(C)=O)C(C)(C)C5CCC43C)C12 (stereo not drawn) [Compound 12] |  | 54.7±7.9% | -18.0±27.4 | 3.8±14.1 | 1.0±5.0 | 14.5±1.3% | 1.8±1.2 | -16.3±7.4 |  |  |  | 
6 | C=C(C)C1CCC2(COS(C)(=O)=O)CCC3(C)C(CCC4C5(C)CCC(OC(C)=O)C(C)(C)C5CCC43C)C12 (stereo not drawn) [Compound 13] |  | 61.2±1.5% | -14.8±8.5 | 0.2±3.8 | -0.4±3.4 | 15.0±1.9% | 6.5±0.9 | -16.5±3.0 |  |  |  | 
7 | C=C(C)[C@@H]1CC[C@]2(C(=O)OC)CC[C@]3(C)[C@H](CC[C@@H]4[C@@]5(C)CC[C@H](O)C(C)(C)[C@@H]5CC[C@]43C)[C@@H]12 [Compound 20, betulinic acid methyl ester] |  | 51% and 51.1±0.6% | 34.3±5.6 | 33.7±7.0 | 13.5±8.9 | 39% and 38.9±1.5% | 8.6±2.5 | 5.3±4.2 |  |  |  | 
8 | C=C(C)C1CCC2(C=O)CCC3(C)C(CCC4C5(C)CCC(=O)C(C)(C)C5CCC43C)C12 (stereo not drawn) [Compound 22] |  | 16.3±19.0% | -18.7±15.1 | 4.1±17.7 | -1.2±0.5 | 6.0±4.6% | 4.5±1.6 | 0.1±1.5 |  |  |  | 
9 | C=C(C)[C@@H]1CC[C@]2(C(=O)OC)CC[C@]3(C)[C@H](CC[C@@H]4[C@@]5(C)CCC(=O)C(C)(C)[C@@H]5CC[C@]43C)[C@@H]12 [Compound 25, methyl ester of betulonic acid] |  |  | -30.0±17.3 | 23.0±4.0 | -3.3±1.4 | 11.4±3.9% | 2.3±0.3 | 2.5±1.3 |  |  |  | 
10 | C=C(C)C1CCC2(C(=O)NC(CC(=O)O)C(=O)O)CCC3(C)C(CCC4C5(C)CCC(=O)C(C)(C)C5CCC43C)C12 [Compound 27, L-aspartyl amide of betulonic acid] |  | 38.2±15.5% | 44.2±3.8 | 10.9±1.3 | 3.1±4.6 | 9.3±1.0% | -1.2±0.4 | 12.7±3.3 |  |  |  | 
11 | C=C(C)[C@@H]1CC[C@]2(C=NO)CC[C@]3(C)[C@H](CC[C@@H]4[C@@]5(C)CCC(=NO)C(C)(C)[C@@H]5CC[C@]43C)[C@@H]12 [Compound 30] |  | 57% and 56.9±2.6% | 13.9±8.8 | 42.4±5.4 | 7.9±6.1 | 18.5±3.4% | 1.4±1.1 | 5.1±6.0 |  |  |  | 
12 | C=C(C)[C@@H]1CC[C@]2(C#N)CC[C@]3(C)[C@H](CC[C@@H]4[C@@]5(C)CCC(=NOC(C)=O)C(C)(C)[C@@H]5CC[C@]43C)[C@@H]12 [Compound 32] |  | 57% and 56.6±7.0% | -43.8±12.6 | -7.2±3.0 | 5.5±1.5 | 12.0±3.0% | 5.7±1.7 | 5.5±1.9 |  |  |  | 
13 | Gentamycin [reference compound] |  |  |  |  |  |  |  |  | (2 µg/mL) | (0.5 µg/mL) | (8 µg/mL) | 
14 | Polymyxin B sulphate [reference compound] |  |  |  |  |  |  |  |  |  |  |  | 9361
